{
  "source": "patent US6187787A",
  "about": "“Bis(9-aminoacridine) DNA intercalating agents having antitumor activity” (Trustees of Dartmouth College, priority 2000, dated 2001)",
  "data": [
    {"tested_on": "L1210 murine leukemia cells", "test": "Cytotoxicity in the murine leukemia cell line L1210 (growth inhibition, 72 hours)", "type": "cell-based", "conditions": "Mus musculus, L1210, 72 h, read-out: ID50", "method": "(§1) Using the methodologies disclosed by Jaycox et al. J. Heterocyclic. […] A number of intercalating agents currently in clinical use for treatment of cancer were also evaluated in this assay for comparison.\n(§2) L1210 murine leukemia cells were routinely maintained as suspension cultures in McCoy's 5A medium supplemented with 10% horse serum, glutamine, penicillin, and streptomycin and grown in a humidified environment of 10% carbon dioxide and 90% air at 37° C. Compounds were dissolved in dimethyl sulfoxide (DMSO) and 40 μg was added to 4 ml of L1210 cells (10^5 cells/tube) to attain final drug concentrations of 0.01, 0.1 and 10 μg/ml of culture. After 72 hours of continuous exposure to the drug, the cell concentration was determined by a Coulter counter (Model ZBF, Hialeah, Fla.). Growth inhibition was calculated for each drug concentration using the following formula:\n(§3) % growth inhibition=(1-A)×100, wherein A=[cell # treated/cell # in\n(§4) The growth inhibition data were then used to calculate the ID50 value (the calculated drug concentration required to inhibit cell growth by 50% of control).", "units": {"IC50": "nM"}, "values": [
      {"smiles": "Cn1cc(NC(=O)c2cc(NC(=O)c3cc(NC=O)cn3C)cn2C)cc1C(=O)NCCC(=N)N", "note": "[distamycin-A, reference compound]", "IC50": 6000},
      {"smiles": "CC[n+]1c(-c2ccccc2)c2cc(N)ccc2c2ccc(N)cc21", "note": "[ethidium bromide, reference compound]", "IC50": 4100}
    ]},
    {"tested_on": "L1210 murine leukemia cells", "test": "Cytotoxicity in the murine leukemia cell line L1210 (growth inhibition, 72 hours)", "type": "cell-based", "conditions": "Mus musculus; L1210 murine leukemia; 72 hours of continuous exposure; concentration which inhibits growth of 50% of the cells; read-out: ID50 (the source's name)", "method": "as §1, §2, §3, §4", "units": {"IC50": "nM"}, "values": [
      {"smiles": "c1ccc2c(N[C@H]3CC[C@@H](C[C@H]4CC[C@@H](Nc5c6ccccc6nc6ccccc56)CC4)CC3)c3ccccc3nc2c1", "IC50": 440},
      {"smiles": "c1ccc2c(N[C@H]3CC[C@@H](C[C@H]4CC[C@H](Nc5c6ccccc6nc6ccccc56)CC4)CC3)c3ccccc3nc2c1", "IC50": 560},
      {"smiles": "c1ccc2c(N[C@H]3CC[C@H](C[C@H]4CC[C@H](Nc5c6ccccc6nc6ccccc56)CC4)CC3)c3ccccc3nc2c1", "IC50": 500},
      {"smiles": "CC(C)(c1ccc(Oc2ccc(Nc3c4ccccc4nc4ccccc34)cc2)cc1)c1ccc(Oc2ccc(Nc3c4ccccc4nc4ccccc34)cc2)cc1", "IC50": 5400},
      {"smiles": "CC(C)(c1ccc(Nc2c3ccccc3nc3ccccc23)cc1)c1ccc(C(C)(C)c2ccc(Nc3c4ccccc4nc4ccccc34)cc2)cc1", "IC50": "> 13000"},
      {"smiles": "c1cc(Nc2c3ccccc3nc3ccccc23)cc(Oc2cccc(Oc3cccc(Nc4c5ccccc5nc5ccccc45)c3)c2)c1", "IC50": 5900},
      {"smiles": "Cc1cc2cccnc2c2ncccc12", "note": "[5-methyl-1,10-phenanthroline, reference compound]", "IC50": 2000},
      {"smiles": "Nc1c2ccccc2nc2ccccc12", "note": "[9-aminoacridine]", "IC50": 2300},
      {"smiles": "Cc1c2ccncc2c(C)c2c1[nH]c1ccccc12", "note": "[ellipticine, reference compound]", "IC50": 530}
    ]},
    {"tested_on": "DNA", "test": "not given", "conditions": "DNA binding characteristics of acridine dimers, Le Pecq et al. 1975; cited from earlier work", "values": [
      {"smiles": "COc1ccc2nc3cc(Cl)ccc3c(NCCCNCCCCNCCCNc3c4ccc(Cl)cc4nc4ccc(OC)cc34)c2c1", "note": "[IIA]", "mode of intercalation (bis- or monofunctional)": "bisintercalated"},
      {"smiles": "COc1ccc2nc3cc(Cl)ccc3c(NCCCCNCCCNc3c4ccc(Cl)cc4nc4ccc(OC)cc34)c2c1", "note": "[IIB]", "mode of intercalation (bis- or monofunctional)": "bisintercalated"},
      {"smiles": "COc1ccc2nc3cc(Cl)ccc3c(NCCCNCCCNc3c4ccc(Cl)cc4nc4ccc(OC)cc34)c2c1", "note": "[III]", "mode of intercalation (bis- or monofunctional)": "only one of the two rings of the dimer with the shortest chain (III) of 9 angstroms was intercalated"}
    ]},
    {"tested_on": "calf thymus DNA", "test": "Thermal denaturation studies on calf thymus DNA", "type": "binding", "conditions": "increase of denaturation temperature", "method": "Thermal denaturation studies were performed on calf thymus DNA. Addition of the compounds of the present invention to the calf thymus DNA caused the denaturation temperature to increase approximately 11° C. (see Table 1).", "units": {"ΔTm": "°C"}, "values": [
      {"smiles": "c1ccc2c(NC3CCC(CC4CCC(Nc5c6ccccc6nc6ccccc56)CC4)CC3)c3ccccc3nc2c1", "note": "(centres unmarked)", "ΔTm": "25.9 ± 4.1"},
      {"smiles": "CC(C)(c1ccc(Oc2ccc(Nc3c4ccccc4nc4ccccc34)cc2)cc1)c1ccc(Oc2ccc(Nc3c4ccccc4nc4ccccc34)cc2)cc1", "ΔTm": "11.6 ± 0.4"},
      {"smiles": "CC(C)(c1ccc(Nc2c3ccccc3nc3ccccc23)cc1)c1ccc(C(C)(C)c2ccc(Nc3c4ccccc4nc4ccccc34)cc2)cc1", "ΔTm": "10.9 ± 0.31"}
    ]}
  ]
}
